Data published in publication PMC10005301, “Prediction of the n-Octanol/Water Partition Coefficients of Basic Compounds Using Multi-Parameter QSRR Models Based on IS-RPLC Retention Behavior in a Wide pH Range” (Molecules, 2023).
Read-outs that look alike come from different tables or passages of the source.

What was measured:
[1] = Description: (§1) The retention behavior of the 42 basic compounds (Table 1) were investigated at different ratios of methanol (φ = 0.7–0.1, the interval was 0.1 or 0.05 based on the retention of the investigated solutes). The logk values were plotted versus φ for each solute at pH 7.0, pH 8.0, pH 9.0, and pH 10.0. […] The logD values of the model compounds and verification compounds calculated using Equation (S3) based on the logP and pH values are also listed in Table 1.
(§2) At each pH, the retention time (tR) of every analyte was determined for at least four different volume fractions (φ) of methanol. All the tR values of the solutes were obtained by averaging the results of at least three independent injections. The tR value was corrected using dual-point retention time correction (DP-RTC). For a detailed description of the process, refer to our previous work. For the different hydrophobicities of the studied compounds, benzene, toluene, and benzyl alcohol were used as anchor compounds in the DP-RTC method. The dead time t0 was determined using uracil. For each solute, the logarithm of k was plotted against φ, and logkw was obtained using the Equation (S1). The logD values of the model compounds were calculated using Equation (S3), and the logD–logkw models were established with Equation (S4). The statistical analysis for the regression model was accomplished using Origin 9.4. […]
(§3) Where, k is the capacity factor, φ is the volume fraction of organic modifier in the mobile phase, and S is the constant obtained by linear regression in the equations. […]
and logkw, which is usually called Collander equation [25 ]. lo g lo g wPm k n= + (S2)
Where, m and n are constants obtained by linear regression.
The Eqs. (S1) and (S2) are the basis for the determination of logP by revered- phase liquid chromatography (RPLC) method. For dissociative solutes, it has been confirmed by many studies that the logD calibrated from logP has a better linear correlation with logkw than logP.
For basic compounds, the logD value can be calibrated from Eq. (S3), and the Collander equation can be rewritten into Eq. (S4). log log( )D − −+ −+= + ++P […]
lo g ' lo g 'Dm k n= +w (S4)
Where, pKa1, pKa2 , … p Kan are the dissociation constants of basic compounds of corresponding acids in the mobile phase, pH is the pH value of mobile phase, m′ and n′ are fitting parameters. Han et al. pointed out that although mobile phase pH and pKa of solutes will change along with the varied organic modifier fraction, the difference between a couple of relevant pH and pKa is a constant. Therefore, the used pH and pKa in this paper were both the values obtained at 100% aqueous phase. […]

[2] = IS-RPLC retention on silica-based C18 column, logkw by linear solvent strength model; assay type: physicochemical
Protocol: as §1
The column temperature was set at 30 °C. Methanol and 20 mmol/L ammonium phosphate buffer (pH = 7.0, 8.0, 9.0, 10.0) was used as the mobile phase to perform isocratic elution. The injection volume was 10 µL and the detection wavelength for each eluted compound was set at its optimum absorption wavelength.
as §2, §3
The Eqs. (S1) and (S2) are the basis for the determination of logP by revered- phase liquid chromatography (RPLC) method. For dissociative solutes, it has been confirmed by many studies that the logD calibrated from logP has a better linear correlation with logkw than logP. […]

[3] = design: method as in UFZ-LSER database; conditions: hydrogen bonding parameter B; ref UFZ-LSER database; cited from earlier work
physchem = assay: physchem
Protocol: Multi-parameter QSRR models including logD, logkw, ne, A, and B were established using the multiple linear regression (MLR) method. In the process of linear fitting, ne, A, B, and their different combinations were introduced to optimize the models.
The logD values reported in the literature for these four compounds were calculated using Equation (S3) with corresponding pKa, logP, and pH values.
At each pH, the retention time (tR) of every analyte was determined for at least four different volume fractions (φ) of methanol. All the tR values of the solutes were obtained by averaging the results of at least three independent injections. The tR value was corrected using dual-point retention time correction (DP-RTC). For a detailed description of the process, refer to our previous work. For the different hydrophobicities of the studied compounds, benzene, toluene, and benzyl alcohol were used as anchor compounds in the DP-RTC method. The dead time t0 was determined using uracil. For each solute, the logarithm of k was plotted against φ, and logkw was obtained using the Equation (S1). The logD values of the model compounds were calculated using Equation (S3), and the logD–logkw models were established with Equation (S4). The statistical analysis for the regression model was accomplished using Origin 9.4.

[4] = pH 7.0, calculated with literature logP, pKa and pH, Equation (S3)
[5] = pH 8.0, calculated with literature logP, pKa and pH, Equation (S3)
[6] = pH 9.0, calculated with literature logP, pKa and pH, Equation (S3)
[7] = pH 10.0, calculated with literature logP, pKa and pH, Equation (S3)
[8] = pH 7.0, methanol/20 mmol/L ammonium phosphate buffer, Welch Xtimate C18, 30 °C, 100% aqueous extrapolation
[9] = pH 8.0, methanol/20 mmol/L ammonium phosphate buffer, Welch Xtimate C18, 30 °C, 100% aqueous extrapolation
[10] = pH 9.0, methanol/20 mmol/L ammonium phosphate buffer, Welch Xtimate C18, 30 °C, 100% aqueous extrapolation
[11] = pH 10.0, methanol/20 mmol/L ammonium phosphate buffer, Welch Xtimate C18, 30 °C, 100% aqueous extrapolation
[12] = IS-RPLC retention (logkw), pH 7
[13] = IS-RPLC retention (logkw), pH 8
[14] = IS-RPLC retention (logkw), pH 9
[15] = IS-RPLC retention (logkw), pH 10

Compound	logkw-pH 7.0 [2, 8]	logkw-pH 8.0 [2, 9]	logkw-pH 9.0 [2, 10]	logkw-pH 10.0 [2, 11]	B [3]	chromatographic logD (physchem; pH 7)	chromatographic logD (physchem; pH 8)	chromatographic logD (physchem; pH 9)	chromatographic logD (physchem; pH 10)	chromatographic logD (physchem; [12])	chromatographic logD (physchem; [13])	chromatographic logD (physchem; [14])	chromatographic logD (physchem; [15])	further results
CN(C)Cc1ccccc1 [N, N-Dimethylbenzylamine]	0.97	1.61	2.13	2.44	0.67									logDpH 7.0 [1, 4]: 0.17; logDpH 8.0 [1, 5]: 1.12; logDpH 9.0 [1, 6]: 1.77; logDpH 10.0 [1, 7]: 1.95
Cc1cc([N+](=O)[O-])ccc1N [2-Methyl-4-nitroaniline]	1.76	1.79	1.46	1.84	1.22	1.67	1.63	1.31	1.6					
Nc1ccc(I)cc1 [4-Iodoaniline]	2.22	2.28	2.29	2.28	1.53					2.14	2.1	2.13	2.08	
Nc1cccc(S(=O)(=O)c2cccc(N)c2)c1 [3,3’-Sulfonyldianiline]	1.78	1.83	1.83	1.47	1.82					1.7	1.67	1.2	0.69	
Nc1ccc([N+](=O)[O-])cc1[N+](=O)[O-] [2,4-Dinitroaniline]	1.80	1.86	1.78	1.92	1.44	1.71	1.69	1.58	1.64					
Cc1ccccn1 [2-Picoline]	1.31	1.32	1.34	1.36	0.60									logDpH 7.0 ([1]; pH 7): 1.05; logDpH 8.0 ([1]; pH 8): 1.09; logDpH 9.0 ([1]; pH 9): 1.09; logDpH 10.0 ([1]; pH 10): 1.09
CCC(C(N)=O)N1CCCC1=O (stereo not drawn) [Etiracetam]	0.80	0.66	0.82	0.88	1.03					0.7	0.54	0.17	0.04	
Nc1ccc(F)cc1 [4-Fluoroaniline]	1.13	1.12	1.14	1.18	1.76									logDpH 7.0 [1, 4]: 1.15; logDpH 8.0 [1, 5]: 1.15; logDpH 9.0 [1, 6]: 1.15; logDpH 10.0 [1, 7]: 1.15
Nc1ncncn1 [2-Amino-1,3,5-triazine]	1.36	1.36	1.38	1.43	1.00					1.27	1.22	0.95	0.88	
Nc1ccccc1N [1,2-diaminobenzene]					1.26	0.38	0.38	0.07	0.28					logkw-pH 7.0 ([2]; pH 7): 0.50; logkw-pH 8.0 ([2]; pH 8): 0.49; logkw-pH 9.0 ([2]; pH 9): 0.29; logkw-pH 10.0 ([2]; pH 10): 0.60
Cc1c[nH]cn1 [4-Methylimidazole]					0.64					-0.54	0.06	0.08	0.07	logkw-pH 7.0 ([2]; pH 7): −0.08; logkw-pH 8.0 ([2]; pH 8): 0.19; logkw-pH 9.0 ([2]; pH 9): 0.32; logkw-pH 10.0 ([2]; pH 10): 0.39
Nc1c(Cl)cc([N+](=O)[O-])cc1[N+](=O)[O-] [2-Chloro-4,6-dinitroaniline]	2.19	2.25	2.26	2.30	1.56	2.11	2.07	1.99	1.97					
c1ccncc1 [Pyridine]														logkw-pH 7.0 ([2]; pH 7): 0.70; logkw-pH 8.0 ([2]; pH 8): 0.92; logkw-pH 9.0 ([2]; pH 9): 1.01; logkw-pH 10.0 ([2]; pH 10): 1.05
O=C(n1ccnc1)n1ccnc1 [1,1’-Carbonyldiimidazole]	−0.39	−0.38	−0.27	−0.15	1.47					-0.52	-0.46	-0.84	-0.89	
Nc1ccccc1 [Aniline]	0.96	0.95	0.97	1.02	1.86									logDpH 7.0 ([1]; pH 7): 0.90; logDpH 8.0 ([1]; pH 8): 0.90; logDpH 9.0 [1, 6]: 0.90; logDpH 10.0 ([1]; pH 10): 0.90
Nc1cccc(N)c1 [1,3-diaminobenzene]	0.17	0.07	−0.16	0.21	1.28	0.03	-0.02	-0.41	-0.15					
O=C(O)c1cc(O)nc(O)c1 [Citrazinic acid]	1.18	1.18	1.20	1.30	1.23					2.29	2.05	1.2	1.87	
c1c[nH]cn1 [Imidazole]	−0.53	−0.39	−0.34	−0.16	0.71									
Nc1ccc([N+](=O)[O-])cc1Cl [2-Chloro-4-nitroaniline]					1.41	1.99	1.96	1.93	1.92					logkw-pH 7.0 ([2]; pH 7): 2.07; logkw-pH 8.0 ([2]; pH 8): 2.13; logkw-pH 9.0 ([2]; pH 9): 2.14; logkw-pH 10.0 ([2]; pH 10): 2.18
COc1nc(C)nc(N)n1 [2-Amino-4-methyl-6-methoxy-s-triazine]	1.36	1.36	1.38	1.43	1.07					1.28	1.22	0.94	0.86	
